The test system of assay [1] is Strep. pyogenes. Briefly: in vitro antibacterial activity, two-fold serial dilution in Brain-Heart Infusion Broth, MIC. Type of assay: cell-based. Conditions: overnight, anaerobic; for MIC: Streptococcus pyogenes. On the procedure:
(§1) The broth is inoculated with bacteria and with the test quinoxaline-1,4-dioxide and then it is incubated overnight under anerobic conditions. On the next day, the test is read visually. The minimum inhibitory concentration (MIC) of the test compound is the lowest concentration which prevents turbidity, i.e., which prevents growth of the microorganism.
(§2) In vitro and in vivo activity of representative compounds of this invention, determined as aforesaid, are reported in the following tabulation for compounds of the formula: ##SPC3##

The test system of assay [2] is E. coli. The description is as above. The class given is cell-based. Particulars: for MIC: Escherichia coli, read-out: IN VITRO MIC E. coli. The procedure:
as §1, §2

Assay [3] has as its system Strep. pyogenes. Briefly: in vivo activity in mice infected with a lethal inoculum, survivors. Particulars: for IN VIVO Survivors (PO) Strep. pyogenes / IN VIVO Survivors-SC Strep. pyogenes / responders at 50 mg/kg: 50 mg./kg., survivors/treated mice; for responders at 100 mg/kg / responders at 50 mg/kg: Streptococcus pyogenes; for responders at 100 mg/kg: footnote (c): dosage = 100 mg./kg. On the procedure:
(§3) In determining in vivo activity of the quinoxaline-1,4-dioxides of this invention, the test compound is administered to mice which have been infected by […] injection of a lethal inoculum of pathogenic bacteria. The test compound is administered using a multiple dosing regimen and using either the oral (PO) or the subcutaneous (SC) route. The inoculum of bacteria varies from about 1 to about 10 times the amount needed to kill 100% of the mice under the conditions of the test. At the end of the test, the activity of the compound is assessed by counting the number of survivors among the treated animals.
as §2

Assay [4] relates to E. coli. The assay is described as above. Conditions: for IN VIVO Survivors-SC E. coli / responders at 25 mg/kg: subcutaneous; for IN VIVO Survivors-SC E. coli / responders at 25 mg/kg / IN VIVO Survivors (PO) E. coli: 25 mg./kg., survivors/treated mice. On the procedure:
as §3, §2

The mark [5] stands for this setting: Brain-Heart Infusion Broth, overnight, anaerobic.
[6] abbreviates: sc, subcutaneous, read-out: IN VIVO Survivors-SC Strep. pyogenes (converted).
[7] abbreviates: oral, read-out: IN VIVO Survivors (PO) Strep. pyogenes (converted).

Values after ≈ are worked out from the molar mass of the structure shown. Read-outs that look alike come from different tables or passages of the source.

Regarding “6-(7)-Formyl-N-(2-Hydroxyethyl)-3-Methyl-2-Quinoxalinecarboxamide 1,4-Dioxide Ethylene Acetal [NHCH2 CH2 OH 6(7)-OO.angle.C.angle.H CH3]”, in assay [1], the “IN VITRO MIC Strep. pyogenes” value is 0.781 µg/mL. Besides, the “IN VITRO MIC E. coli” value in assay [2] (setting [5]) came to 25 µg/mL. Also, the “IN VIVO Survivors (PO) Strep. pyogenes” value in assay [3] (oral) was 3/10. Further, the “IN VIVO Survivors-SC Strep. pyogenes” value in assay [3] (subcutaneous) is 2/10. Moreover, in assay [4], the “IN VIVO Survivors-SC E. coli” value is listed as 3/10.

On to `CC(=O)c1ccc2c(c1)[n+]([O-])c(C)c(C(=O)N(C)C)[n+]2[O-]` [N(CH3)2 6-COCH3 CH3], for which the MIC in assay [1] and in assay [2] was 6.25 µg/mL (≈ 21.6 µM) in each case. Moreover, the responders at 100 mg/kg in assay [3] (sc, subcutaneous, read-out: IN VIVO Survivors-SC Strep. pyogenes) worked out at 60%; in assay [3] (oral, read-out: IN VIVO Survivors (PO) Strep. pyogenes), 50%. The responders at 25 mg/kg in assay [4] (Escherichia coli, sc) is 20%. In addition, in assay [4], the “IN VIVO Survivors (PO) E. coli” value is 0/5.

Regarding `CC(=O)c1ccc2c(c1)[n+]([O-])c(C(=O)N(C)C)c(C)[n+]2[O-]` [N(CH3)2 7-COCH3 CH3], the MIC in assay [1] and in assay [2] (setting [5]) was 6.25 µg/mL (≈ 21.6 µM) in each case. Moreover, the responders at 50 mg/kg is 60% in assay [3] (setting [6]) and 20% in assay [3] (setting [7]). For the same compound, in assay [4] (Escherichia coli, sc), the responders at 25 mg/kg was 0%.

For the compound `CC(=O)c1ccc2c(c1)[n+]([O-])c(C)c(C(N)=O)[n+]2[O-]` [NH2 6-COCH3 CH3, 6- and 7-Acetyl-3-Methyl-2-Quinoxalinecarboxamide 1,4-dioxide], the MIC in assay [1] and in assay [2] (setting [5]) was less than 0.391 µg/mL throughout. The responders at 50 mg/kg was 100% in assay [3] (setting [6]) and 90% in assay [3] (setting [7]). Further, the responders at 25 mg/kg in assay [4] (Escherichia coli, sc) is 100%. Moreover, the “IN VIVO Survivors (PO) E. coli” value in assay [4] is 5/5.

As for `CC(=O)c1ccc2c(c1)[n+]([O-])c(C(N)=O)c(C)[n+]2[O-]` [NH2 7-COCH3 CH3, 6- and 7-Acetyl-3-Methyl-2-Quinoxalinecarboxamide 1,4-dioxide], the results for the MIC in assay [1] and in assay [2] (setting [5]) were 0.391 µg/mL (≈ 1.5 µM) and less than 0.391 µg/mL, respectively. The responders at 50 mg/kg in assay [3] (setting [6]) is 100%; in assay [3] (setting [7]), 80%. Besides, in assay [4] (Escherichia coli, sc), the responders at 25 mg/kg is 100%.

With `Cc1c(C(N)=O)[n+]([O-])c2cc(C3(C)OCCO3)ccc2[n+]1[O-]` [NH2 7-OO.angle.C.angle.CH3 CH3], the minimal inhibitory concentration (MIC) in assay [1] and in assay [2] (setting [5]) was 12.5 µg/mL (≈ 40.9 µM) each time. The responders at 50 mg/kg in assay [3] (setting [6]) and in assay [3] (setting [7]) was 80% in each case. In assay [4] (Escherichia coli, sc), this compound had a responders at 25 mg/kg of 100%. The “IN VIVO Survivors (PO) E. coli” value in assay [4] is given as 3/5.

As to `CC(=O)c1ccc2c(c1)[n+]([O-])c(C)c(C(=O)NCCO)[n+]2[O-]` [NHCH2 CH2 OH 6-COCH3 CH3], the MIC in assay [1] and in assay [2] (setting [5]) was less than 0.391 µg/mL throughout. Also, the responders at 50 mg/kg in assay [3] (setting [6]) was 50%; in assay [3] (setting [7]) it was 20%. The responders at 100 mg/kg in assay [4] (Escherichia coli, sc, read-out: IN VIVO Survivors-SC E. coli) was found to be 30%.

Consider `CNC(=O)c1c(C)[n+]([O-])c2cc(C(C)=O)ccc2[n+]1[O-]` [NHCH3 6-COCH3 CH3], for which the figures for the MIC in assay [1] and in assay [2] (setting [5]) were 0.781 µg/mL (≈ 2.84 µM) and less than 0.391 µg/mL, respectively. The responders at 50 mg/kg is 60% in assay [3] (setting [6]) and 40% in assay [3] (setting [7]). In addition, the responders at 25 mg/kg in assay [4] (Escherichia coli, sc) was 80%. For the same compound, the “IN VIVO Survivors (PO) E. coli” value in assay [4] is 7/10.

`CNC(=O)c1c(C)[n+]([O-])c2ccc(CO)cc2[n+]1[O-]` [NHCH3 7-CH2 OH CH3]: the MIC is greater than 200 µg/mL in assay [1] and 6.25 µg/mL (≈ 23.7 µM) in assay [2] (setting [5]). Further, the responders at 50 mg/kg is 20% in assay [3] (setting [6]) and 10% in assay [3] (setting [7]). In assay [4] (Escherichia coli, sc), this compound came in with a responders at 25 mg/kg of 90%.

Regarding `CNC(=O)c1c(C)[n+]([O-])c2ccc(C(C)=O)cc2[n+]1[O-]` [NHCH3 7-COCH3 CH3], the MIC in assay [1] and in assay [2] (setting [5]) was 0.391 µg/mL (≈ 1.42 µM) in each case. Also, the responders at 50 mg/kg in assay [3] (setting [6]) is 50%; in assay [3] (setting [7]), 90%. The compound also registered a responders at 25 mg/kg in assay [4] (Escherichia coli, sc) of 60%.

As to “Ethyl 6(7)-Hydroxymethyl-3-Methyl-2-Quinoxaline-Carboxylate 1,4-Dioxide [OCH2 CH3 6(7)-CH2 OH CH3]”, the “IN VITRO MIC Strep. pyogenes” value in assay [1] was 25 µg/mL. In assay [2] (setting [5]), the “IN VITRO MIC E. coli” value is 25 µg/mL. Besides, the “IN VIVO Survivors (PO) Strep. pyogenes” value in assay [3] (oral) is 5/10. For the same compound, in assay [3] (subcutaneous), the “IN VIVO Survivors-SC Strep. pyogenes” value was 6/10. Further, in assay [4], the “IN VIVO Survivors-SC E. coli” value is recorded as 4/10.

As to “N,3-Dimethyl-6(7)-Hydroxymethyl-2-Quinoxalinecarboxamide 1,4-Dioxide [NHCH3 6(7)-CH2 OH CH3]”, the “IN VITRO MIC Strep. pyogenes” value in assay [1] came to 50 µg/mL. Moreover, the “IN VITRO MIC E. coli” value in assay [2] (setting [5]) was found to be 25 µg/mL. Further, the “IN VIVO Survivors (PO) Strep. pyogenes” value in assay [3] (oral) is recorded as 3/10. Also, the “IN VIVO Survivors-SC Strep. pyogenes” value in assay [3] (subcutaneous) is listed as 3/10. In assay [4], the “IN VIVO Survivors-SC E. coli” value was 8/10.

Turning to “N-Methyl-6(7)-Hydroxymethyl-2-Quinoxalinecarboxamide 1,4-Dioxide [NHCH3 6(7)-CH2 OH H]”, the “IN VITRO MIC Strep. pyogenes” value in assay [1] came out at 0.781 µg/mL. In assay [2] (setting [5]), the “IN VITRO MIC E. coli” value worked out at 1.562 µg/mL. Also, the “IN VIVO Survivors (PO) Strep. pyogenes” value in assay [3] (oral) was 6/10. The “IN VIVO Survivors-SC Strep. pyogenes” value in assay [3] (subcutaneous) is recorded as 10/10. Besides, the “IN VIVO Survivors-SC E. coli” value in assay [4] is listed as 4/10.

The term MIC denotes the lowest concentration found to suppress growth.

For the origin of these results see patent US3948911A, “Substituted quinoxaline-2-carboxamide 1,4-dioxides” (Pfizer Inc., priority 1974, dated 1976).
